{"source": "patent US8263562B2", "about": "“Peptides for preventing or treating liver damage” (priority 2006, dated 2012)", "key": {"[1]": {"system": "Sera of Patients with HCV (anti-HCV antibody-positive sera)", "assay": "Indirect ELISA, reactivity of the peptides to anti-HCV antibody-positive sera", "type": "binding, human", "conditions": "for reactivity to sera of patients with HCV compared to sera of patients with HBV and healthy donors: X^2-test; for Percentage of Positive Cases (%) / The Number of Positive Cases: anti-HCV antibody-positive sera of 30 patients, sera dilution 1:100, 10 μg peptide coated", "protocol": "Anti-HCV antibody-positive sera: randomly obtained from inpatients infected with HCV in the Liberation Army 302 Hospital from 2000 to 2001.\n(§1) The reactivity of the individual peptide of the invention to sera was detected by standard indirect ELISA technology using Model DG3022 Enzyme-Linked Immunoassay Analyzer (purchased from Perkin Elmer Corporation). 10 μg of Peptide A, Peptide B, Peptide C, and Peptide Conjugate A were added respectively into the basic coating buffer (0.1 mol/L NaHCO3, 35 μl; 0.1 mol/L Na2CO3, 15 μl; H2O, 50 μl), and then transferred into the wells of polypropylene/ethylene microtiter plate, and placed at 4° C. overnight. After adding 120 μl of FCS-PBS, each well was blocked at 37° C. for 2 hours. Sera (dilution of 1:100) were then added to the wells, and incubated at 37° C. for 1 hour. Goat anti-human IgGs (dilution of 1:1000) (purchased from Sino-American Biotechnology Company, Beijing) were then added to the wells, and incubated at 37° C. for 1 hour. 50 μl of Solution A and Solution B (purchased from Beijing Kewei Reagent Company) were added to every well, placed in the dark for 5 min, and then the absorbance at 450 nm was measured."}, "sera of healthy donors": {"system": "sera of healthy donors", "assay": "Indirect ELISA, reactivity of the peptides to control sera of healthy donors", "type": "binding, human", "conditions": "sera of 10 healthy donors", "protocol": "Control sera: obtained from healthy blood donors, who had normal blood indexes in each assay.\nas §1"}, "IL-10": {"system": "IL-10", "assay": "Level of IL-10 in sera of immunized mice by ELISA", "type": "in vivo, BALB/c Mice", "conditions": "first day after the fourth immunization", "protocol": "(§2) BALB/c Mice, all of which are male, 6 week old, and purchased from the Laboratory Animal Center of Academy Of Military Medical Sciences, Beijing, were divided into 4 groups as follows with 5 mice in each group: (1) the control group; (2) the Peptide A group, immunized with Peptide A; (3) the Peptide B group, immunized with Peptide B; and (4) the Peptide C group, immunized with Peptide C.\n(§3) 50 μl of the peptide (100 μg/μl) used in the corresponding group and 50 μl of Freund's complete adjuvant (GIBCOBRL Corp.) were mixed thoroughly with a microstirrer, and the mixture was injected into the claw pad of a mouse, thereby the first immunization was performed for each of the mice. 14 days later, booster immunization was performed in the same manner as the first immunization with 50 μl of the peptide (100 μg/μl) used in the corresponding group and 50 μl of Freund's complete adjuvant (GIBCOBRL Corp.). 14 days later, another booster immunization was performed in the same manner. 14 days later, boost immunization was performed by injecting 100 μg of the peptide dissolved in 200 μl PBS into the mouse intramuscularly. During the process of immunization, only the corresponding adjuvant and PBS were injected for the control group. At the first day after the fourth immunization, mice were sacrificed and sera were collected.\n(§4) According to the specification of the manufacturer, the levels of cytokines (i.e., IL-4, IL-10, and γ-IFN) in sera of the above immunized mice were detected respectively by using IL-4 Quantikine ELASA Kit, IL-10 Quantikine ELASA Kit, and γ-IFN Quantikine ELASA Kit (all of which are purchased from R&D, Inc.)."}, "γ-IFN [2]": {"system": "γ-IFN", "assay": "Level of γ-IFN in sera of immunized mice by ELISA", "type": "in vivo, BALB/c Mice", "conditions": "first day after the fourth immunization", "protocol": "as §2, §3, §4"}, "[3]": {"system": "sera of patients with HBV", "assay": "Indirect ELISA, reactivity of the peptides to sera of patients with Hepatitis B", "type": "binding, human", "conditions": "sera of 10 patients with HBV", "protocol": "Sera of patients with Hepatitis B (HBV): obtained from inpatients with Hepatitis B in the Liberation Army 302 Hospital, who was positive for the surface antigen of Hepatitis B virus as assayed.\nas §1"}, "IL-4": {"system": "IL-4", "assay": "Level of IL-4 in sera of immunized mice by ELISA", "type": "in vivo, BALB/c Mice", "conditions": "first day after the fourth immunization", "protocol": "as §2, §3, §4"}, "[4]": {"system": "BCG vaccine and lipopolysaccharide-induced immunological liver damage", "type": "in vivo, Wistar Rats", "conditions": "for pathological condition of liver (score) versus model group: P<0.05"}, "[5]": {"system": "D-aminogalactose-induced acute liver damage", "assay": "D-aminogalactose-induced acute liver damage of rats", "type": "in vivo, Wistar Rats", "excerpt": "Wistar Rats (body weight of each was 180 g˜220 g; half of them were male and the others were female; and they were purchased from Shanghai Slac Laboratory Animal, Inc.) were divided randomly into 6 groups as follows with 10 rats in each group: (1) the diammonium glycyrrhizinate injection group, injected with diammonium glycyrrhizinate; (2) the high dose group, immunized with Peptide A and adjuvant; (3) the medium dose group, immunized with Peptide A and adjuvant; (4) the low dose group, immunized with Peptide A and adjuvant; (5) the blank control group; and (6) the model group.\nRats in the high dose group, the medium dose group and the low dose group were immunized as follows: At Day 0, the first immunization was performed by the following process: 100 μl of Peptide A dissolved in physiological saline was mixed thoroughly with the equivalent volume of Freund's complete adjuvant, and then 0.2 ml of the resultant water-in-oil emulsion was administered via subcutaneous injection to each rat, wherein the dosage of Peptide A contained in the emulsion was 174 μg/kg rat body weight for the high dose group, 87 μg/kg rat body weight for the medium dose group, and 43.5 μg/kg rat body weight for the low dose group respectively. 14 days later, the second immunization was performed in the same dosage and manner as the first immunization except that, Freund's complete adjuvant was replaced by Freund's incomplete adjuvant. […]\nAt the 48th hour after intraperitoneally injecting D-aminogalactose, each rat was sacrificed by cervical dislocation, and blood was collected. After sera were isolated, according to the specification of the manufacturer, the activities of glutamic-pyruvic transaminase (SGPT) and glutamic-oxalacetic transaminase (SGOT) in sera were detected respectively by using Glutamic-pyruvic Transaminase Detection Kit (purchased from Nanjing Jiancheng Bioengineering Institute) and Glutamic-oxalacetic Transaminase Detection Kit (purchased from Nanjing Jiancheng Bioengineering Institute)."}, "γ-IFN [6]": {"system": "γ-IFN", "assay": "Effects of the peptide on γ-IFN of rats in vivo", "design": "species or system SD Rats", "conditions": "four immunizations", "excerpt": "SD Rats (body weight of each was 180 g˜220 g; half of them were male and the others were female; and they were purchased from the Animal Institute of Academy Of Military Medical Sciences) were divided randomly into 5 groups as follows with 10 rats in each group: (1) the blank control group; (2) the adjuvant control group; (3) the high dose group, immunized with Peptide A and adjuvant; (4) the low dose group, immunized with Peptide A and adjuvant; and (5) the peptide group, immunized with Peptide A only.\nRats in the high dose group and the low dose group were immunized as follows: At Day 0, the first immunization was performed by the following process: Peptide A dissolved in physiological saline was mixed thoroughly with the equivalent volume of Freund's complete adjuvant, and then 0.1 ml of the resultant water-in-oil emulsion was administered via subcutaneous injection to each rat, wherein the dosage of Peptide A contained in the emulsion was 50 μg/kg rat body weight for the high dose group and 25 μg/kg rat body weight for the low dose group respectively. […]\nAt the first day after the fourth immunization, rats from every group were sacrificed and splenocytes were collected. […] According to the specification of the manufacturer, the level of γ-IFN in sera of the above immunized rats was detected by using γ-IFN ELASA Quantikine ELASA Kit (purchased from R&D, Inc.)."}, "[7]": {"system": "tetrachloromethane-induced liver damage", "assay": "Tetrachloromethane-induced liver damage of mice", "type": "in vivo, BALB/c mice", "experimental": "At the first before the first immunization, 0.05 ml CCl4 (available from Shanghai Linfen Chemical Reagent Co., Ltd.) was administered via subcutaneous injection to each mouse of all groups other than the blank control group; and the equivalent volume of physiological saline was injected for the blank control group.\nMice in the high dose group, the medium dose group and the low dose group were immunized as follows: the first immunization was performed by the following process: 1000 of Peptide A dissolved in physiological saline was mixed thoroughly with the equivalent volume of Freund's complete adjuvant, and then 0.2 ml of the resultant water-in-oil emulsion was administered via subcutaneous injection to each mouse, wherein the dosage of Peptide A contained in the emulsion was 250 μg/kg mouse body weight for the high dose group, 125 μg/kg mouse body weight for the medium dose group, and 62.5 μg/kg mouse body weight for the low dose group respectively. 14 days later, the second immunization was performed in the same dosage and manner as the first immunization except that, Freund's complete adjuvant was replaced by Freund's incomplete adjuvant. 14 days later, the third immunization was performed in the same dosage and manner as the first immunization except that, Freund's complete adjuvant was replaced by Freund's incomplete adjuvant. 14 days later, the fourth immunization was performed by the following process: 0.1 ml of Peptide A dissolved in physiological saline was administered without any adjuvants via intraperitoneal injection to each rat, wherein the dosage of Peptide A was 250 μg/kg mouse body weight for the high dose group, 125 μg/kg mouse body weight for the medium dose group, and 62.5 μg/kg mouse body weight for the low dose group respectively.\nAt the days of immunization for the high dose group, the medium dose group and the low dose group, starting at Day 0, the corresponding physiological saline was injected into each rat of the model group and the blank control group, for up to four times; meanwhile, the corresponding adjuvant and physiological saline were injected for the adjuvant control group, for up to four times.\nAt the first day before the fourth immunization, 0.05 ml CCl4 was administered via subcutaneous injection to each mouse of all groups other than the blank control group; and the equivalent volume of physiological saline was injected for the blank control group. At the second day after the fourth immunization, all of mice were sacrificed.\nJust before sacrificing all mice, each rat was weighed, and then sacrificed by cervical dislocation. Then Blood was collected, before sera were isolated."}, "[8]": {"conditions": "13.5 mg/kg intraperitoneal, every day for 7 days"}, "[9]": {"conditions": "high, medium, low dosage (174, 87, 43.5 μg/kg) without adjuvants, subcutaneous, four immunizations, 12 h after LPS"}, "[10]": {"conditions": "high, medium, low dosage (174, 87, 43.5 μg/kg) with adjuvant, four immunizations, 48 h after D-aminogalactose 600 mg/kg"}, "[11]": {"conditions": "high, medium, low dosage (250, 125, 62.5 μg/kg) with adjuvant, four immunizations, CCl4 subcutaneous"}}, "note": "Read-outs that look alike come from different tables or passages of the source."}
{"compound": "GQTYTSGG [Peptide C]", "values": [{"measurement": "reactivity to sera of patients with HCV compared to sera of patients with HBV and healthy donors", "setting": "[1]", "value": "significantly react"}, {"measurement": "Percentage of Positive Cases (%)", "setting": "[1]", "value": 47, "unit": "%"}, {"measurement": "The Number of Positive Cases", "setting": "[1]", "value": 14}, {"measurement": "reactivity in ELISA Assay to sera of healthy donors", "setting": "sera of healthy donors", "value": "negative"}, {"measurement": "IL-10(pg/ml serum)", "setting": "IL-10", "value": "26.926 ± 5.8", "unit": "pg/ml serum"}, {"measurement": "γ-IFN(pg/ml serum)", "setting": "γ-IFN [2]", "value": "24.81 ± 5.8", "unit": "pg/ml serum"}, {"measurement": "reactivity in ELISA Assay to sera of patients with HBV", "setting": "[3]", "value": "negative"}, {"measurement": "IL-4(pg/ml serum)", "setting": "IL-4", "value": "31.22 ± 5.0", "unit": "pg/ml serum"}]}
{"compound": "CC1(C)[C@@H](O[C@H]2O[C@H](C(=O)O)[C@@H](O)[C@H](O)[C@H]2O[C@@H]2O[C@H](C(=O)O)[C@@H](O)[C@H](O)[C@H]2O)CC[C@]2(C)[C@H]3C(=O)C=C4[C@@H]5C[C@@](C)(C(=O)O)CC[C@]5(C)CC[C@@]4(C)[C@]3(C)CC[C@@H]12.N.N", "note": "[diammonium glycyrrhizinate injection, diammonium glycyrrhizinate, reference compound]", "values": [{"measurement": "protective effect on liver damage of rats (SGPT, SGOT)", "setting": "[4]; [8]", "value": "no significant protective effect"}, {"measurement": "protective effect on liver damage of rats (pathological condition score)", "setting": "[4]; [8]", "value": "no significant protective effect"}, {"measurement": "protective effect on acute liver damage of rats (SGPT, SGOT)", "setting": "[5]; [8]", "value": "significant protective effect"}]}
{"compound": "GQTYTSG [Peptide A]", "values": [{"measurement": "reactivity to sera of patients with HCV compared to sera of patients with HBV and healthy donors", "setting": "[1]", "value": "significantly react"}, {"measurement": "Percentage of Positive Cases (%)", "setting": "[1]", "value": 43, "unit": "%"}, {"measurement": "The Number of Positive Cases", "setting": "[1]", "value": 13}, {"measurement": "pathological condition of liver (score) versus model group", "setting": "[4]; high and medium dosage (174, 87 μg/kg) without any adjuvants", "value": "significant alleviation"}, {"measurement": "level of glutamic-oxalacetic transaminase (SGOT) in sera versus model group", "setting": "[4]; [9]", "value": "significant decrease"}, {"measurement": "level of glutamic-pyruvic transaminase (SGPT) in sera versus model group", "setting": "[4]; [9]", "value": "significant decrease"}, {"measurement": "pathological condition of liver (score) versus model group", "setting": "[4]; low dosage (43.5 μg/kg) with adjuvant", "value": "significant alleviation"}, {"measurement": "protective effect on acute immunological liver damage (SGPT, SGOT)", "setting": "[4]; low dose & adjuvant group, 43.5 μg/kg", "value": "protective effect"}, {"measurement": "level of glutamic-oxalacetic transaminase (SGOT) in sera versus model group", "setting": "[5]; [10]", "value": "significant decrease"}, {"measurement": "level of glutamic-pyruvic transaminase (SGPT) in sera versus model group", "setting": "[5]; [10]", "value": "significant decrease"}, {"measurement": "level of γ-IFN, Peptide A only with no adjuvant, versus same dosage of Peptide A and adjuvant", "setting": "γ-IFN [6]; 50 μg/kg subcutaneous", "value": "even higher"}, {"measurement": "γ-IFN in sera of the immunized rats compared to both of the control groups", "setting": "γ-IFN [6]; Peptide A 50 or 25 μg/kg with adjuvant, or 50 μg/kg without adjuvant, FIG. 2", "value": "significant increase"}, {"measurement": "reactivity in ELISA Assay to sera of healthy donors", "setting": "sera of healthy donors", "value": "negative"}, {"measurement": "IL-10(pg/ml serum)", "setting": "IL-10", "value": "27.94 ± 6.4", "unit": "pg/ml serum"}, {"measurement": "tetrachloromethane-induced hepatomegaly of mice", "setting": "[7]; 250 μg/kg mouse body weight", "value": "significant reduction"}, {"measurement": "pathological conditions of the liver tissues (score) versus model group", "setting": "[7]; high dose group, 250 μg/kg with adjuvant", "value": "alleviated significantly"}, {"measurement": "level of glutamic-oxalacetic transaminase (SGOT) in sera versus model group", "setting": "[7]; [11]", "value": "significant decrease"}, {"measurement": "level of glutamic-pyruvic transaminase (SGPT) in sera versus model group", "setting": "[7]; [11]", "value": "significant decrease"}, {"measurement": "γ-IFN(pg/ml serum)", "setting": "γ-IFN [2]", "value": "23.46 ± 5.9", "unit": "pg/ml serum"}, {"measurement": "reactivity in ELISA Assay to sera of patients with HBV", "setting": "[3]", "value": "negative"}, {"measurement": "IL-4(pg/ml serum)", "setting": "IL-4", "value": "29.64 ± 4.9", "unit": "pg/ml serum"}]}
{"compound": "GQTYTSGA [Peptide B]", "values": [{"measurement": "reactivity to sera of patients with HCV compared to sera of patients with HBV and healthy donors", "setting": "[1]", "value": "significantly react"}, {"measurement": "Percentage of Positive Cases (%)", "setting": "[1]", "value": 50, "unit": "%"}, {"measurement": "The Number of Positive Cases", "setting": "[1]", "value": 15}, {"measurement": "reactivity in ELISA Assay to sera of healthy donors", "setting": "sera of healthy donors", "value": "negative"}, {"measurement": "IL-10(pg/ml serum)", "setting": "IL-10", "value": "27.94 ± 6.4", "unit": "pg/ml serum"}, {"measurement": "γ-IFN(pg/ml serum)", "setting": "γ-IFN [2]", "value": "28.46 ± 5.9", "unit": "pg/ml serum"}, {"measurement": "reactivity in ELISA Assay to sera of patients with HBV", "setting": "[3]", "value": "negative"}, {"measurement": "IL-4(pg/ml serum)", "setting": "IL-4", "value": "30.64 ± 4.9", "unit": "pg/ml serum"}]}
